Structures can show the parent of a compound that is named as a salt.

For this assay, the target named is T1, human TRPV4 (Homo sapiens, UniProt Q9HBA0).
T1 construct: expressed in transfected cells; host or cells: BHK/AC9 cells transduced with BacMam virus
T1 sequence (Q9HBA0 whole entry): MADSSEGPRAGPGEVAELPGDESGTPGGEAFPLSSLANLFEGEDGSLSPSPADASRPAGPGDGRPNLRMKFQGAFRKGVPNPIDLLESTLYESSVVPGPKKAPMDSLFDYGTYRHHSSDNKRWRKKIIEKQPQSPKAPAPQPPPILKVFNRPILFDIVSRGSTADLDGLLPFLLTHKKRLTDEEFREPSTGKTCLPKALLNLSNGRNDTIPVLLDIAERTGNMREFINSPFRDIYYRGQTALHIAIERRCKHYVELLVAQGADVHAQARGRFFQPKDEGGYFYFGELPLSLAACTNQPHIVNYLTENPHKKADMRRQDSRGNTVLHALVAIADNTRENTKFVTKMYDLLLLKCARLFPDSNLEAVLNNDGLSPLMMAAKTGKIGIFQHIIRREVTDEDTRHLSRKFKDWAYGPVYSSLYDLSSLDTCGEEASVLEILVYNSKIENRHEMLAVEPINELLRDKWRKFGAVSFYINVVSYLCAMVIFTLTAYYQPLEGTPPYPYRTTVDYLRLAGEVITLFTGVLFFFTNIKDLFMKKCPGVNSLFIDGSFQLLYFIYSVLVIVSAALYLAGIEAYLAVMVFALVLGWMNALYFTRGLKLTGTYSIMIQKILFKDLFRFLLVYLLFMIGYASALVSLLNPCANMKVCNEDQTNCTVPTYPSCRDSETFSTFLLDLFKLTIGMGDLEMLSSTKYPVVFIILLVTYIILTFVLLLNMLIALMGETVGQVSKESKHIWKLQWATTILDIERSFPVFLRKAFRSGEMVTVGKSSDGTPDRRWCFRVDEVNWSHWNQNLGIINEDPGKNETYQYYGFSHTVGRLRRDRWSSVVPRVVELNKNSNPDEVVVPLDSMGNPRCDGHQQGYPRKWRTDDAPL
The experiment in a line: FLIPR assay for hTRPV4 expressed in BHK cells: inhibition of Agonist Compound-induced calcium signal. It is filed as cell-based. Particulars: hTRPV4 in BHK/AC9 cells, FLIPR calcium signal, agonist at EC80; reported as range class; read-out: IC50. In outline:
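Calcium influx through TRPV4 tracked by Fluo-4 fluorescence on FLIPR. Cells: BHK/AC9 transduced with BacMam-hTRPV4 at MOI 78, 24 h culture post-plating (15,000 cells/well). Dye loading: 2 μM Fluo-4 AM with 500 μM Brilliant Black quencher, 1-1.5 h, room temperature, dark.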
In general, IC50 refers to the midpoint of a concentration-inhibition curve. As to `N#Cc1cc(F)ccc1S(=O)(=O)N1C[C@H](Oc2ccc(C(F)(F)F)cc2)[C@](O)(CO)C1` [Example 153, 5-fluoro-2-(((3R,4S)-3-hydroxy-3-(hydroxymethyl)-4-(4-(trifluoromethyl)phenoxy)pyrrolidin-1-yl)sulfonyl)benzonitrile], the IC50 is 0.1 to 10 nM. As to `CCc1ccc(S(=O)(=O)N2C[C@H](Oc3ccc(C#N)c(F)c3)[C@](O)(CO)C2)c(C#N)c1` [Example 217, 4-(((3S,4R)-1-((2-cyano-4-ethylphenyl)sulfonyl)-4-hydroxy-4-(hydroxymethyl)pyrrolidin-3-yl)oxy)-2-fluorobenzonitrile], the IC50 was in the range of 0.1 to 10 nM. For `N#Cc1cc(C(F)(F)F)ccc1S(=O)(=O)N1C[C@H](Oc2ccc(C#N)c(F)c2F)[C@](O)(CO)C1` [Example 15, 4-(((3S,4R)-1-((2-cyano-4-(trifluoromethyl)phenyl)sulfonyl)-4-hydroxy-4-(hydroxymethyl)pyrrolidin-3-yl)oxy)-2,3-difluorobenzonitrile], the IC50 fell in the range of 0.1 to 10 nM. As for `COc1cc(C#N)c(F)cc1O[C@H]1CN(S(=O)(=O)c2ccc(C(F)(F)F)cc2C#N)C[C@@]1(O)CO` [Example 158, 4-(((3S,4R)-1-((2-cyano-4-(trifluoromethyl)phenyl)sulfonyl)-4-hydroxy-4-(hydroxymethyl)pyrrolidin-3-yl)oxy)-2-fluoro-5-methoxybenzonitrile], the figure is 0.1 to 10 nM. In the case of `N#Cc1ccc(O[C@H]2CN(S(=O)(=O)c3cccc(Cl)c3Cl)C[C@@]2(O)CO)cc1F` [Example 94, 4-(((3S,4R)-1-((2,3-dichlorophenyl)sulfonyl)-4-hydroxy-4-(hydroxymethyl)pyrrolidin-3-yl)oxy)-2-fluorobenzonitrile] it was 10 to 100 nM. As for `N#Cc1ccc(O[C@H]2CN(S(=O)(=O)c3c(Cl)nc4sccn34)C[C@@]2(O)CO)cc1F` [Example 90, 4-(((3S,4R)-1-((6-chloroimidazo[2,1-b]thiazol-5-yl)sulfonyl)-4-hydroxy-4-(hydroxymethyl)pyrrolidin-3-yl)oxy)-2-fluorobenzonitrile], the figure is 10 to 100 nM. `CC(C)NC[C@]1(O)CN(S(=O)(=O)c2ccc(C(F)(F)F)cc2C#N)C[C@@H]1Oc1ccc(C#N)c(F)c1` [Example 239, 4-(((3S,4S)-1-((2-cyano-4-(trifluoromethyl)phenyl)sulfonyl)-4-hydroxy-4-((isopropylamino)methyl)pyrrolidin-3-yl)oxy)-2-fluorobenzonitrile, 2,2,2-trifluoroacetate]: the IC50 was 0.1 to 10 nM. As for `N#Cc1ccc(O[C@H]2CN(S(=O)(=O)c3cccc(OC(F)F)n3)C[C@@]2(O)CO)cc1F` [Example 134, 4-(((3S,4R)-1-((6-(difluoromethoxy)pyridin-2-yl)sulfonyl)-4-hydroxy-4-(hydroxymethyl)pyrrolidin-3-yl)oxy)-2-fluorobenzonitrile], the figure is 10 to 100 nM.

As for `N#Cc1cc(C(F)(F)F)ccc1S(=O)(=O)N1C[C@H](Oc2ccc(C(F)(F)F)cc2)[C@](O)(CO)C1` [Example 37, 2-(((3R,4S)-3-hydroxy-3-(hydroxymethyl)-4-(4-(trifluoromethyl)phenoxy)pyrrolidin-1-yl)sulfonyl)-5-(trifluoromethyl)benzonitrile], the concentration for half-maximal inhibition (IC50) lay in the range of 0.1 to 10 nM. In the case of `N#Cc1ccc(S(=O)(=O)N2C[C@H](Oc3ccc(C(F)(F)F)cc3)[C@](O)(CO)C2)c(Cl)c1` [Example 150, 3-chloro-4-(((3R,4S)-3-hydroxy-3-(hydroxymethyl)-4-(4-(trifluoromethyl)phenoxy)pyrrolidin-1-yl)sulfonyl)benzonitrile] it was 10 to 100 nM. As for `N#Cc1ccc(S(=O)(=O)N2C[C@H](Oc3ccc(C#N)c(F)c3)[C@@](O)(CO)C2)c(Cl)c1` [Example 141, 4-(((3S,4S)-1-((2-chloro-4-cyanophenyl)sulfonyl)-4-hydroxy-4-(hydroxymethyl)pyrrolidin-3-yl)oxy)-2-fluorobenzonitrile], the figure is 10 to 100 nM.

For the molecule `N#Cc1ccc(O[C@H]2CN(S(=O)(=O)c3ccc(F)cc3Br)C[C@]2(O)CO)cc1F` [Example 144, 4-(((3S,4S)-1-((2-bromo-4-fluorophenyl)sulfonyl)-4-hydroxy-4-(hydroxymethyl)pyrrolidin-3-yl)oxy)-2-fluorobenzonitrile], the half-inhibitory concentration (IC50) was 10 to 100 nM. In the case of `N#Cc1cc(OCC(F)(F)F)c(O[C@H]2CN(S(=O)(=O)c3ccc(Cl)cn3)C[C@]2(O)CO)cc1F` [Example 215, 4-(((3S,4S)-1-((5-chloropyridin-2-yl)sulfonyl)-4-hydroxy-4-(hydroxymethyl)pyrrolidin-3-yl)oxy)-2-fluoro-5-(2,2,2-trifluoroethoxy)benzonitrile] it was 10 to 100 nM; in that of `N#Cc1ccc(O[C@H]2CN(S(=O)(=O)c3ccc(Cl)cn3)C[C@]2(O)CO)cc1F` [Example 136, 4-(((3S,4S)-1-((5-chloropyridin-2-yl)sulfonyl)-4-hydroxy-4-(hydroxymethyl)pyrrolidin-3-yl)oxy)-2-fluorobenzonitrile], 100 to 1000 nM.

Turning to `C#Cc1ccccc1S(=O)(=O)N1C[C@H](Oc2ccc(C#N)c(F)c2)[C@](O)(CO)C1` [Example 93, 4-(((3S,4R)-1-((2-ethynylphenyl)sulfonyl)-4-hydroxy-4-(hydroxymethyl)pyrrolidin-3-yl)oxy)-2-fluorobenzonitrile], the IC50 lay in the range of 10 to 100 nM. Consider `CC(C)COc1cc(C#N)c(F)cc1O[C@H]1CN(S(=O)(=O)c2ccccc2C#N)C[C@@]1(O)CO` [Example 179, 4-(((3S,4R)-1-((2-cyanophenyl)sulfonyl)-4-hydroxy-4-(hydroxymethyl)pyrrolidin-3-yl)oxy)-2-fluoro-5-isobutoxybenzonitrile], for which the IC50 fell in the range of 0.1 to 10 nM. Turning to `N#Cc1ccc(O[C@H]2CN(S(=O)(=O)c3ccc(Br)cn3)C[C@@]2(O)CN)cc1F` [Example 251, 4-(((3S,4S)-4-(aminomethyl)-1-((5-bromopyridin-2-yl)sulfonyl)-4-hydroxpyrrolidin-3-yl)oxy)-2-fluorobenzonitrile, 2,2,2-trifluoroacetate], the half-maximal inhibitory concentration (IC50) fell in the range of 0.1 to 10 nM. In the case of `N#Cc1ccc(O[C@H]2CN(S(=O)(=O)c3ccc(C(F)(F)F)c(F)c3)C[C@@]2(O)CO)cc1F` [Example 116, 2-fluoro-4-(((3S,4R)-1-((3-fluoro-4-(trifluoromethyl)phenyl)sulfonyl)-4-hydroxy-4-(hydroxymethyl)pyrrolidin-3-yl)oxy)benzonitrile] it was 10 to 100 nM; in that of `N#Cc1cc(Cl)ccc1S(=O)(=O)N1C[C@H](Oc2ccc(F)c(F)c2)[C@](O)(CO)C1` [Example 8, 5-chloro-2-(((3R,4S)-4-(3,4-difluorophenoxy)-3-hydroxy-3-(hydroxymethyl)pyrrolidin-1-yl)sulfonyl)benzonitrite], 0.1 to 10 nM; in that of `N#Cc1ccc(O[C@H]2CN(S(=O)(=O)c3ccc(Cl)cc3C#N)C[C@]2(O)CN)cc1F` [Example 235, 4-(((3S,4R)-4-(aminomethyl)-1-((4-chloro-2-cyanophenyl)sulfonyl)-4-hydroxypyrrolidin-3-yl)oxy)-2-fluorobenzonitrile, Hydrochloride], 0.1 to 10 nM.

With `N#Cc1ccc(O[C@H]2CN(S(=O)(=O)c3cnc(C(F)(F)F)nc3)C[C@@]2(O)CO)cc1F` [Example 128, 2-fluoro-4-(((3S,4R)-4-hydroxy-4-(hydroxymethyl)-1-((2-(trifluoromethyl)pyrimidin-5-yl)sulfonyl)pyrrolidin-3-yl)oxy)benzonitrile], the half-inhibitory concentration (IC50) was 100 to 1000 nM. As for `N#Cc1ccc(O[C@H]2CN(S(=O)(=O)c3ccccc3C#N)C[C@]2(O)CO)cc1F` [Example 137, 4-(((3S,4S)-1-((2-cyanophenyl)sulfonyl)-4-hydroxy-4-(hydroxymethyl)pyrrolidin-3-yl)oxy)-2-fluorobenzonitrile], the figure is 10 to 100 nM. In the case of `CC(C)C[C@@H](O)[C@]1(O)CN(S(=O)(=O)c2ccc(Cl)cn2)C[C@@H]1Oc1ccc(C#N)c(F)c1` [Example 197, 4-(((3S,4R)-1-((5-chloropyridin-2-yl)sulfonyl)-4-hydroxy-4-((R)-1-hydroxy-3-methylbutyl)pyrrolidin-3-yl)oxy)-2-fluorobenzonitrile] it was 0.1 to 10 nM; in that of `N#Cc1ccc(O[C@H]2CN(S(=O)(=O)c3ccc(C#N)nc3)C[C@@]2(O)CO)c(OCC(F)(F)F)c1` [Example 184, 5-(((3R,4S)-4-(4-cyano-2-(2,2,2-trifluoroethoxy)phenoxy)-3-hydroxy-3-(hydroxymethyl)pyrrolidin-1-yl)sulfonyl) picolinonitrile], 10 to 100 nM. In the case of `N#Cc1ccc(O[C@H]2CN(S(=O)(=O)c3ccc(C(F)(F)F)cc3C#N)C[C@@]2(O)CO)c(OCc2ccccc2)c1` [Example 171, 2-(((3R,4S)-4-(2-(benzyloxy)-4-cyanophenoxy)-3-hydroxy-3-(hydroxymethyl)pyrrolidin-1-yl)sulfonyl)-5-(trifluoromethyl)benzonitrile] it was 0.1 to 10 nM; in that of `N#Cc1cc(C(F)(F)F)ccc1S(=O)(=O)N1C[C@H](Oc2ccc(F)c(C(F)(F)F)c2)[C@](O)(CO)C1` [Example 38, 2-(((3R,4S)-4-(4-fluoro-3-(trifluoromethyl)phenoxy)-3-hydroxy-3-(hydroxymethyl)pyrrolidin-1-yl)sulfonyl)-5-(trifluoromethyl)benzonitrile], 10 to 100 nM; in that of `CC#Cc1cc(C#N)ccc1S(=O)(=O)N1C[C@H](Oc2ccc(C#N)c(F)c2)[C@](O)(CO)C1` [Example 224, 4-(((3S,4R)-1-((4-cyano-2-(prop-1-yn-1-yl)phenyl)sulfonyl)-4-hydroxy-4-(hydroxymethyl)pyrrolidin-3-yl)oxy)-2-fluorobenzonitrile], 10 to 100 nM. With `N#Cc1cc(C(F)(F)F)ccc1S(=O)(=O)N1C[C@H](Oc2cnc(C(F)(F)F)nc2)[C@](O)(CO)C1` [Example 55, 2-(((3R,4S)-3-hydroxy-3-(hydroxymethyl)-4-((2-(trifluoromethyl)pyrimidin-5-yl)oxy)pyrrolidin-1-yl)sulfonyl)-5-(trifluoromethyl)benzonitrile], the IC50 is 10 to 100 nM.

The record behind these values is patent US11229623B2 (GlaxoSmithKline Intellectual Property (No.2) Limited, priority 2016, dated 2022).
